Results from patent US20060223837A1 (priority 2005, published 2006).

Legend:
human VR1 [1] = target: T1, human VR1 (Homo sapiens, UniProt Q8NER1); test: Human VR1 [3H]RTX binding assay; conditions: for h Binding % I (1 μM) / inhibition at 1 µM: inhibition of [3H]RTX binding at 1 μM; for Ki: [3H]RTX binding, HEK293 membranes; for inhibition at 1 µM: read-out: h Binding % I (1 μM)
T1 construct: expressed in transfected cells; host or cells: HEK293
Procedure, shortened: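 Inhibition of [3H]resiniferatoxin binding measured on HEK293-hVR1 membranes over 60 min at 37 C, pH 7.4 HEPES buffer containing BSA. Pellet radioactivity counted; 200 nM cold RTX gave nonspecific binding. % inhibition computed and Ki derived from duplicate measurements.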

human VR1 [2] = target: T1, human VR1; test: Human VR1 functional assay (FLIPR intracellular Ca2+); type: cell-based; conditions: for % Response Relative to EC80 of Capsaicin (12 μM) / Emax at 12 µM / Emax at 6 µM: agonist response; for Emax at 12 µM: read-out: % Response Relative to EC80 of Capsaicin (12 μM); for h % I (5 μM) / inhibition at 5 µM / inhibition at 1 µM: inhibition of capsaicin response; for IC50: antagonism of capsaicin-induced Ca2+ increase, read-out: h IC50; for inhibition at 5 µM: read-out: h % I (5 μM); for Emax at 6 µM: read-out: % Response Relative to EC80 of Capsaicin (6 μM); for inhibition at 1 µM: read-out: h % I (1 μM)
Procedure, shortened: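 Read-out was Ca2+-dye fluorescence by FLIPR: compounds at varying concentrations were added to dye-loaded human VR1 HEK293 cells and monitored 5 min before capsaicin addition ([…], approx. EC80). Dose-response data, averaged over four wells, gave EC50 or IC50.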

T1 sequence (Q8NER1 whole entry): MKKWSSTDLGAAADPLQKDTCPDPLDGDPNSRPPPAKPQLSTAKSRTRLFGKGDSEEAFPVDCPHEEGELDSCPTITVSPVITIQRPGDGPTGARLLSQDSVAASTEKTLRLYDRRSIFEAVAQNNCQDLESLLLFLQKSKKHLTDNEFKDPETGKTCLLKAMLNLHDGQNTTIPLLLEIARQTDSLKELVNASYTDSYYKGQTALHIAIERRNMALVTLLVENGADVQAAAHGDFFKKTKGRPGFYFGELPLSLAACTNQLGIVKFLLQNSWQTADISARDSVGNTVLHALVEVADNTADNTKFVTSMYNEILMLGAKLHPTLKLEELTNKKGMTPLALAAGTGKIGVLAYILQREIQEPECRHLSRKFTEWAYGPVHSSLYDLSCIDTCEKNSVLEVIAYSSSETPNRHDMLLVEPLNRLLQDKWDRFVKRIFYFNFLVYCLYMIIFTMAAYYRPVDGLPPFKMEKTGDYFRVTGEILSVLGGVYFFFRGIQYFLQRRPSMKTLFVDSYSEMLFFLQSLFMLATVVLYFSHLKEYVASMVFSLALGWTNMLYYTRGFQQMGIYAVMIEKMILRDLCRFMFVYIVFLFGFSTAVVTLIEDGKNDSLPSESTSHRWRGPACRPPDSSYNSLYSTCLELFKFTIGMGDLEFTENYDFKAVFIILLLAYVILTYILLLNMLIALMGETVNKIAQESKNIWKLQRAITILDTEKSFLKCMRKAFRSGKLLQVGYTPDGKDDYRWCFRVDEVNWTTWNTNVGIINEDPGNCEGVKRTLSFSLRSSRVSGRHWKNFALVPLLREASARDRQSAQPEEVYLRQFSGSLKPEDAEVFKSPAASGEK

SMILES	Ki (human VR1 [1]) [µM]	IC50 (human VR1 [2]) [µM]	inhibition at 5 µM (human VR1 [2]) [%]	inhibition at 1 µM (human VR1 [2]) [%]	other results
NC(=O)c1cccc(-c2ccc(NC(=O)CCc3ccc(C(F)(F)F)cc3)cn2)c1 [Cpd 144]	–	–	–	–	h Binding % I (1 μM) (human VR1 [1]): 1%; % Response Relative to EC80 of Capsaicin (12 μM) (human VR1 [2]): 73%
CC(=O)Nc1cccc(-c2ccc(NC(=O)CCc3ccc(C(F)(F)F)cc3)cn2)c1 [Cpd 145]	–	–	–	–	h Binding % I (1 μM) (human VR1 [1]): 16%; % Response Relative to EC80 of Capsaicin (12 μM) (human VR1 [2]): 92%
O=C(CCc1ccc(C(F)(F)F)cc1)Nc1ccc(-c2cccc(O)c2)nc1 [Cpd 147]	0.319	–	–	–	inhibition at 1 µM (human VR1 [1]): 62%; Emax at 12 µM (human VR1 [2]): 92%
O=C(CCc1ccc(C(F)(F)F)cc1)Nc1ccc(-c2ccc(O)cc2)nc1 [Cpd 148]	0.0986	–	–	–	inhibition at 1 µM (human VR1 [1]): 73%; Emax at 12 µM (human VR1 [2]): 74%
O=C(CCc1ccc(C(F)(F)F)cc1)Nc1ccc(-c2cccc(CO)c2)nc1 [Cpd 149]	–	–	–	–	h Binding % I (1 μM) (human VR1 [1]): 9%; % Response Relative to EC80 of Capsaicin (12 μM) (human VR1 [2]): 101%
O=C(CCc1ccc(C(F)(F)F)cc1)Nc1ccc(-c2ccc(CO)cc2)nc1 [Cpd 150]	0.149	–	–	–	inhibition at 1 µM (human VR1 [1]): 75%; Emax at 12 µM (human VR1 [2]): 79%
O=C(CCc1ccc(C(F)(F)F)cc1)Nc1ccc(-c2cccnc2)nc1 [Cpd 151]	–	–	–	–	h Binding % I (1 μM) (human VR1 [1]): 35%; % Response Relative to EC80 of Capsaicin (12 μM) (human VR1 [2]): 91%
O=C(CCc1ccc(C(F)(F)F)cc1)Nc1ccc(-c2ccncc2)nc1 [Cpd 152]	–	–	–	–	h Binding % I (1 μM) (human VR1 [1]): 37%; % Response Relative to EC80 of Capsaicin (12 μM) (human VR1 [2]): 100%
CC(C)(C)c1ccc(CCC(=O)Nc2ccc(-c3ccncc3)c3ccccc23)cc1 [Cpd 153]	–	–	–	–	h Binding % I (1 μM) (human VR1 [1]): 1%; h % I (5 μM) (human VR1 [2]): 25%
O=C(CCc1ccc(C(F)(F)F)cc1)Nc1ccc(-c2ccncc2)c2ccccc12 [Cpd 157]	–	–	–	–	h Binding % I (1 μM) (human VR1 [1]): 1%; h % I (5 μM) (human VR1 [2]): 12%
Cc1cc(NC(=O)CCc2ccc(C(C)(C)C)cc2)cnc1-c1ccccc1O [Cpd 160, 3-(4-tert-butyl-phenyl)-N-[6-(2-hydroxy-phenyl)-5-methyl-pyridin-3-yl]-propionamide]	–	0.027	96	–	inhibition at 1 µM (human VR1 [1]): 101%
CC(C)(C)c1ccc(CCC(=O)Nc2cc(F)c(-c3ccncc3)c(F)c2)cc1 [Cpd 169]	0.048	–	–	96	Emax at 6 µM (human VR1 [2]): 45%
CC(C)(C)c1ccc(CCC(=O)Nc2ccc(-c3ccncc3)c(CO)c2)cc1 [Cpd 171]	0.292	–	–	60	Emax at 6 µM (human VR1 [2]): 119%
CC(C)(C)c1ccc(CCC(=O)Nc2cc(F)c(-c3ccccn3)c(F)c2)cc1 [Cpd 175]	0.142	–	–	75	–
CC(C)(C)c1ccc(CCC(=O)Nc2ccc(-c3ccccn3)nc2)cc1 [Cpd 176]	0.066	–	22	99	–
Cc1cc(NC(=O)CCc2ccc(C(C)(C)C)cc2)ccc1-c1cccnc1 [Cpd 179]	0.067	0.266	100	81	–
Cc1cc(NC(=O)CCc2ccc(C(C)(C)C)cc2)ccc1-c1ccncc1 [Cpd 180]	0.042	–	–	91	Emax at 6 µM (human VR1 [2]): 96%
CC(C)(C)c1ccc(CCC(=O)Nc2ccc(-c3ccncc3)c(F)c2)cc1 [Cpd 182]	0.055	–	–	80	Emax at 6 µM (human VR1 [2]): 97%
Cn1ccnc1-c1ccc(NC(=O)CCc2ccc(C(C)(C)C)cc2)cc1 [Cpd 189]	–	–	–	–	h Binding % I (1 μM) (human VR1 [1]): 4%; h % I (5 μM) (human VR1 [2]): 63%
Cn1cnc(-c2ccc(NC(=O)CCc3ccc(C(C)(C)C)cc3)cc2)c1 [Cpd 190]	–	–	–	–	h Binding % I (1 μM) (human VR1 [1]): 56%; h % I (5 μM) (human VR1 [2]): 98%
Cn1cncc1-c1ccc(NC(=O)CCc2ccc(C(C)(C)C)cc2)cc1 [Cpd 191]	–	0.000972	–	–	inhibition at 1 µM (human VR1 [1]): 19%
CC(C)(C)c1ccc(CCC(=O)Nc2ccc(C3CN=CO3)cc2)cc1 (centres unmarked) [Cpd 194]	–	–	–	–	h Binding % I (1 μM) (human VR1 [1]): 45%; h % I (5 μM) (human VR1 [2]): 94%
Cc1nc(-c2ccc(NC(=O)CCc3ccc(C(C)(C)C)cc3)cc2)cs1 [Cpd 195]	–	–	–	–	h Binding % I (1 μM) (human VR1 [1]): 75%; h % I (5 μM) (human VR1 [2]): 20%
CC(C)(C)c1ccc(CCC(=O)Nc2ccc(-c3csnn3)cc2)cc1 [Cpd 197]	–	0.000283	–	–	h Binding % I (1 μM) (human VR1 [1]): 62%

SMILES	Ki (human VR1 [1]) [µM]	IC50 (human VR1 [2]) [µM]	inhibition at 5 µM (human VR1 [2]) [%]	inhibition at 1 µM (human VR1 [2]) [%]	other results
CC(C)(C)c1ccc(CCC(=O)Nc2ccc(-n3cncn3)cc2)cc1 [Cpd 198]	–	0.00382	–	–	inhibition at 1 µM (human VR1 [1]): 37%
CC(C)(C)c1ccc(CCC(=O)Nc2ccc(-c3nn[nH]n3)cc2)cc1 [Cpd 199]	–	–	–	–	h Binding % I (1 μM) (human VR1 [1]): 3%; h % I (5 μM) (human VR1 [2]): 19%
CC1=NN(c2ccc(NC(=O)CCc3ccc(C(C)(C)C)cc3)cc2)C(=O)C1 [Cpd 201]	–	–	–	–	h Binding % I (1 μM) (human VR1 [1]): 1%; h % I (5 μM) (human VR1 [2]): 57%
CC(C)(C)c1ccc(CCC(=O)Nc2cnc(-n3ccnc3)c(C(F)(F)F)c2)cc1 [Cpd 202, 3-(4-tert-Butyl-phenyl)-N-(6-imidazol-1-yl-5-trifluoromethyl-pyridin-3-yl)-propionamide]	0.212	0.0301	100	–	–
Cc1cc(NC(=O)CCc2ccc(C(F)(F)F)cc2)cnc1-n1cnc(Cl)c1Cl [Cpd 203, N-[6-(4,5-Dichloro-imidazol-1-yl)-5-methyl-pyridin-3-yl]-3-(4-trifluoromethyl-phenyl)-propionamide]	0.034	0.0352	100	99	–
Cc1cn(-c2ccc(NC(=O)CCc3ccc(C(F)(F)F)cc3)cc2C(F)(F)F)cn1 [Cpd 204, N-[4-(4-Methyl-imidazol-1-yl)-3-trifluoromethyl-phenyl]-3-(4-trifluoromethyl-phenyl)-propionamide]	0.0319	0.037	–	100	–
Cc1cn(-c2ccc(NC(=O)/C=C/c3ccc(S(=O)(=O)C(F)(F)F)cc3)cc2C(F)(F)F)cn1 [Cpd 205, trans-N-[4-(4-Methyl-imidazol-1-yl)-3-trifluoromethyl-phenyl]-3-(4-trifluoromethanesulfonyl-phenyl)-acrylamide]	0.0444	0.038	–	100	–
O=C(CCc1ccc(C(F)(F)F)cc1)Nc1ccc(-c2cccc(O)c2)c(C(F)(F)F)c1 [Cpd 206]	0.0646	0.0394	100	–	–
O=C(CCc1ccc(C(F)(F)F)cc1)Nc1ccc(-n2ccnc2)c(C(F)(F)F)c1 [Cpd 207]	0.0478	0.0402	100	95	–
Cc1cn(-c2ccc(NC(=O)/C=C/c3ccc(SC(F)(F)F)cc3)cc2C(F)(F)F)cn1 [Cpd 208]	0.0887	0.041	–	100	–
O=C(CCc1ccc(C(F)(F)F)cc1)Nc1cnc(-c2cccc(O)c2)c(C(F)(F)F)c1 [Cpd 210, N-[6-(3-Hydroxy-phenyl)-5-trifluoromethyl-pyridin-3-yl]-3-(4-trifluoromethyl-phenyl)-propionamide]	0.0545	0.057	100	–	–
CC(C)(C)c1ccc(CCC(=O)Nc2ccc(-n3cnc(Cl)c3Cl)cc2)cc1 [Cpd 211]	0.0222	0.06	99	–	–
CC(C)(C)c1ccc(CCC(=O)Nc2ccc(-n3cnc(Cl)c3Cl)c(C(F)(F)F)c2)cc1 [Cpd 212, 3-(4-tert-Butyl-phenyl)-N-[4-(4,5-dichloro-imidazol-1-yl)-3-trifluoromethyl-phenyl]-propionamide]	0.0059	0.0627	100	101	–
Cc1cc(NC(=O)CCc2ccc(C(C)(C)C)cc2)cnc1-n1ccnc1 [Cpd 214]	0.536	0.0732	91	–	–
Cc1cc(NC(=O)CCc2ccc(C(C)(C)C)cc2)cnc1-n1cnc(Cl)c1Cl [Cpd 215]	0.0074	0.0743	100	–	–
CC(=O)Nc1cccc(-c2ncc(NC(=O)CCc3ccc(C(C)(C)C)cc3)cc2C)c1 [Cpd 216]	0.0704	0.0762	99	–	–
O=C(/C=C/c1ccc(S(=O)(=O)C(F)(F)F)cc1)Nc1ccc(-n2cnc(Cl)c2Cl)c(C(F)(F)F)c1 [Cpd 217]	0.0477	0.087	–	101	–
O=C(CCc1ccc(C(F)(F)F)cc1)Nc1ccc(-n2cnc(Cl)c2Cl)c(C(F)(F)F)c1 [Cpd 218]	0.0199	0.0972	101	–	–
O=C(CCc1ccc(C(F)(F)F)cc1)Nc1ccc(-c2ccncc2)c(C(F)(F)F)c1 [Cpd 220]	0.0998	0.121	100	–	–
O=C(CCc1ccc(C(F)(F)F)cc1)Nc1cnc(-c2ccc(O)cc2)c(C(F)(F)F)c1 [Cpd 221]	0.0578	0.127	100	–	–
O=C(CCc1ccc(C(F)(F)F)cc1)Nc1ccc(-c2ccc(CO)cc2)c(C(F)(F)F)c1 [Cpd 223]	0.0826	0.142	–	–	h % I (5 μM) (human VR1 [2]): 100%
CC(C)(C)c1ccc(CCC(=O)Nc2cnc(-n3cnc(Cl)c3Cl)c(C(F)(F)F)c2)cc1 [Cpd 224]	0.0184	0.147	101	–	–
O=C(CCc1ccc(C(F)(F)F)cc1)Nc1cnc(-c2ccc(CO)cc2)c(C(F)(F)F)c1 [Cpd 225]	0.162	0.152	100	–	–
Cc1cn(-c2ncc(NC(=O)CCc3ccc(C(F)(F)F)cc3)cc2C)cn1 [Cpd 226]	0.761	0.164	–	83	–
